Assay results from the NIST ThermoML archive (doi:10.1021/acs.jced.6b00516).

Experiment: wn = mass fraction of the nth substance listed
Conditions: 102 kPa, Liquid, Vibrating tube method

CCCCC1CCCCC1 [butylcyclohexane] + Cc1ccccc1
mass density [kg/m3]
Conditions	w1 = 0.1002	w1 = 0.2175	w1 = 0.3001	w1 = 0.3999	w1 = 0.5	w1 = 0.6001	w1 = 0.6995	w1 = 0.8001	w1 = 0.8996
293.15 K	858.58	849.42	843.23	835.97	829.25	822.67	816.44	810.43	804.75
303.15 K	849.47	840.53	834.5	827.42	820.88	814.48	808.43	802.58	797.08
313.15 K	840.29	831.58	825.72	818.82	812.46	806.25	800.37	794.7	789.37
323.15 K	831.04	822.57	816.86	810.17	803.99	797.96	792.27	786.78	781.62
333.15 K	821.72	813.48	807.94	801.44	795.45	789.62	784.11	778.81	773.83
343.15 K	812.2	804.3	798.8	792.6	786.8	781.3	775.9	770.7	765.9
353.15 K	802.7	795.1	789.7	783.7	778.1	772.8	767.5	762.6	758

CCCCC1CCCCC1 [butylcyclohexane] + CCCCCCCCCCCCCCCC
mass density [kg/m3]
Conditions	w1 = 0.1002	w1 = 0.2	w1 = 0.3001	w1 = 0.3998	w1 = 0.4998	w1 = 0.6001	w1 = 0.7	w1 = 0.7999	w1 = 0.8998
293.15 K	775.85	778.23	780.67	783.16	785.72	788.34	791.01	793.72	796.48
303.15 K	768.9	771.24	773.65	776.08	778.59	781.15	783.74	786.38	789.06
313.15 K	761.94	764.25	766.6	768.99	771.43	773.92	776.44	779	781.6
323.15 K	754.99	757.24	759.55	761.87	764.25	766.67	769.12	771.6	774.12
333.15 K	748.02	750.22	752.47	754.73	757.04	759.39	761.76	764.16	766.6
343.15 K	741.1	743.2	745.35	747.5	749.8	752.1	754.35	756.6	759
353.15 K	734.1	736.1	738.3	740.3	742.5	744.7	746.9	749.1	751.4
